Experimental data reported in article PMC5423974 (European Journal of Clinical Pharmacology, 2017).

Columns and labels:
Assay in all cases: Pharmacogenetic association of genetic variants with dose-normalized PK (linear regression, additive model; random effects meta-analysis)
Type in all cases: in vivo, human
[1] = test system: CYP2C19
Experimental: (§1) Five of the six genetic variants analyzed (CYP2C19*2, CYP2C19*3, CYP2C19*17, UGT1A1*6, ABCG2 421C > A) were single nucleotide polymorphisms while one genetic variant was a tandem repeat (UGT1A1*28.) Genotyping of the variants was performed using a Luminex CYP2C19 assay (for CYP2C19*2, CYP2C19*3 and CYP2C19*17), Taqman assays (for UGT1A1*6 and ABCG2 421C > A), and fragment analysis (for UGT1A1*28).
(§2) Each genetic variant was tested for any association with dose-normalized AUC, AUC0–12 or Cmax, using linear regression under an additive genetic model (i.e. phenotypic response per additional copy of the variant allele, where 0, 1 or 2 copies can be present at each locus). For each PK parameter Bonferroni’s correction was used to control for multiple testing when assessing statistical significance. A p value below 0.008 (p < 0.05 with Bonferoni correction for 6 tests) was considered statistically significant. Given the variation in frequency of the variant alleles, analyses were performed stratified by ethnic group (Asian, White, Black) across the studies. A combined estimate across populations was obtained using random effects meta-analysis to allow for between-population heterogeneity.
(§3) Genotype distributions were tested for deviation from Hardy-Weinberg equilibrium using Chi-squared tests. All pharmacogenetic analyses were performed using either StataSE version 14.1 or R statistical software version 3.2.2.

[2] = test system: UGT1A1
Experimental: as §1, §2, §3

[3] = test system: ABCG2
Experimental: as §1, §2, §3

[4] = CYP219C*2, combined across ethnicities, random effects meta-analysis, N 87
[5] = CYP219C*3, combined analysis, N 42
[6] = CYP219C*17, combined across ethnicities, random effects meta-analysis, N 87
[7] = UGTA1*6, combined analysis, N 42
[8] = UGTA1*28/37, combined across ethnicities, random effects meta-analysis, N 87
[9] = combined across ethnicities, random effects meta-analysis, N 87

- Beta, per-allele change in DN AUC ([1]; CYP219C*2, Black, N 21): -0.043 log ng.h/mL/mg
- Beta, per-allele change in DN AUC(0–12) ([1]; CYP219C*2, Black, N 21): -0.010 log ng.h/mL/mg
- Beta, per-allele change in DN Cmax ([1]; CYP219C*2, Black, N 21): -0.110 log ng/mL/mg
- Beta, per-allele change in DN AUC ([1]; CYP219C*2, East Asian, N 42): 0.009 log ng.h/mL/mg
- Beta, per-allele change in DN AUC(0–12) ([1]; CYP219C*2, East Asian, N 42): 0.011 log ng.h/mL/mg
- Beta, per-allele change in DN Cmax ([1]; CYP219C*2, East Asian, N 42): -0.064 log ng/mL/mg
- Beta, per-allele change in DN AUC ([1]; CYP219C*2, White, N 24): 0.198 log ng.h/mL/mg
- Beta, per-allele change in DN AUC(0–12) ([1]; CYP219C*2, White, N 24): 0.242 log ng.h/mL/mg
- Beta, per-allele change in DN Cmax ([1]; CYP219C*2, White, N 24): 0.167 log ng/mL/mg
- Beta, per-allele effect on DN AUC [1, 4]: 0.042 log ng.h/mL/mg
- Beta, per-allele effect on DN AUC(0–12) [1, 4]: 0.069 log ng.h/mL/mg
- Beta, per-allele effect on DN Cmax [1, 4]: -0.010 log ng/mL/mg
- Beta, per-allele change in DN AUC ([1]; CYP219C*3, East Asian, N 42): 0.063 log ng.h/mL/mg
- Beta, per-allele change in DN AUC(0–12) ([1]; CYP219C*3, East Asian, N 42): 0.096 log ng.h/mL/mg
- Beta, per-allele change in DN Cmax ([1]; CYP219C*3, East Asian, N 42): 0.122 log ng/mL/mg
- Beta, per-allele effect on DN AUC [1, 5]: 0.063 log ng.h/mL/mg
- Beta, per-allele effect on DN AUC(0–12) [1, 5]: 0.096 log ng.h/mL/mg
- Beta, per-allele effect on DN Cmax [1, 5]: 0.122 log ng/mL/mg
- Beta, per-allele change in DN AUC ([1]; CYP219C*17, Black, N 21): 0.090 log ng.h/mL/mg
- Beta, per-allele change in DN AUC(0–12) ([1]; CYP219C*17, Black, N 21): 0.089 log ng.h/mL/mg
- Beta, per-allele change in DN Cmax ([1]; CYP219C*17, Black, N 21): 0.086 log ng/mL/mg
- Beta, per-allele change in DN AUC ([1]; CYP219C*17, East Asian, N 42): -0.104 log ng.h/mL/mg
- Beta, per-allele change in DN AUC(0–12) ([1]; CYP219C*17, East Asian, N 42): -0.139 log ng.h/mL/mg
- Beta, per-allele change in DN Cmax ([1]; CYP219C*17, East Asian, N 42): -0.142 log ng/mL/mg
- Beta, per-allele change in DN AUC ([1]; CYP219C*17, White, N 24): -0.116 log ng.h/mL/mg
- Beta, per-allele change in DN AUC(0–12) ([1]; CYP219C*17, White, N 24): -0.127 log ng.h/mL/mg
- Beta, per-allele change in DN Cmax ([1]; CYP219C*17, White, N 24): 0.041 log ng/mL/mg
- Beta, per-allele effect on DN AUC [1, 6]: 0.004 log ng.h/mL/mg
- Beta, per-allele effect on DN AUC(0–12) [1, 6]: -0.014 log ng.h/mL/mg
- Beta, per-allele effect on DN Cmax [1, 6]: 0.037 log ng/mL/mg
- Beta, per-allele change in DN AUC ([2]; UGTA1*6, East Asian, N 42): 0.061 log ng.h/mL/mg
- Beta, per-allele change in DN Cmax ([2]; UGTA1*6, East Asian, N 42): 0.073 log ng/mL/mg
- Beta, per-allele effect on DN AUC [2, 7]: 0.061 log ng.h/mL/mg
- Beta, per-allele effect on DN Cmax [2, 7]: 0.073 log ng/mL/mg
- Beta, per-allele change in DN AUC ([2]; UGTA1*28/37, Black, N 21): 0.052 log ng.h/mL/mg
- Beta, per-allele change in DN Cmax ([2]; UGTA1*28/37, Black, N 21): 0.048 log ng/mL/mg
- Beta, per-allele change in DN AUC ([2]; UGTA1*28/37, East Asian, N 42): -0.153 log ng.h/mL/mg
- Beta, per-allele change in DN Cmax ([2]; UGTA1*28/37, East Asian, N 42): -0.152 log ng/mL/mg
- Beta, per-allele change in DN AUC ([2]; UGTA1*28/37, White, N 24): -0.033 log ng.h/mL/mg
- Beta, per-allele change in DN Cmax ([2]; UGTA1*28/37, White, N 24): 0.190 log ng/mL/mg
- Beta, per-allele effect on DN AUC [2, 8]: -0.055 log ng.h/mL/mg
- Beta, per-allele effect on DN Cmax [2, 8]: 0.016 log ng/mL/mg
- Beta, per-allele change in DN AUC ([3]; Black, N 21): 0.018 log ng.h/mL/mg
- Beta, per-allele change in DN AUC(0–12) ([3]; Black, N 21): -0.020 log ng.h/mL/mg
- Beta, per-allele change in DN Cmax ([3]; Black, N 21): -0.463 log ng/mL/mg
- Beta, per-allele change in DN AUC ([3]; East Asian, N 42): 0.042 log ng.h/mL/mg
- Beta, per-allele change in DN AUC(0–12) ([3]; East Asian, N 42): 0.043 log ng.h/mL/mg
- Beta, per-allele change in DN Cmax ([3]; East Asian, N 42): 0.104 log ng/mL/mg
- Beta, per-allele change in DN AUC ([3]; White, N 24): -0.116 log ng.h/mL/mg
- Beta, per-allele change in DN AUC(0–12) ([3]; White, N 24): -0.093 log ng.h/mL/mg
- Beta, per-allele change in DN Cmax ([3]; White, N 24): -0.119 log ng/mL/mg
- Beta, per-allele effect on DN AUC [3, 9]: 0.028 log ng.h/mL/mg
- Beta, per-allele effect on DN AUC(0–12) [3, 9]: 0.029 log ng.h/mL/mg
- Beta, per-allele effect on DN Cmax [3, 9]: 0.015 log ng/mL/mg
Structure (SMILES): Cn1cnc2c(F)c(Nc3ccc(Br)cc3Cl)c(C(=O)NOCCO)cc21 [selumetinib, Selumetinib]
